Measured values published in patent US20100267561A1, “HERBICIDAL PYRIDAZINONE DERIVATIVES” (priority 2007, published 2010).

Columns and labels:
Format in all cases: in vivo
canola (Brassica rapa) = experiment: Test C pre-/postemergence plant response
Outline: (§1)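 Both preemergence (to planted seed) and postemergence (to plants 2–18 cm high, 1- to 4-leaf) applications used test chemicals in a non-phytotoxic solvent mixture containing surfactant. Evaluation: visual comparison with controls after 15 to 25 days; 0 means no effect, 100 complete control.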

[1] = system: winter barley (Hordeum vulgare); experiment: Test C pre-/postemergence plant response
Outline: as §1

[2] = system: annual bluegrass (Poa annua); experiment: Test E pre-/postemergence plant response; conditions: scale 0 to 100
Outline: (§2)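 Steps: sow seeds; apply compound preemergence in a non-phytotoxic solvent/surfactant formulation; in parallel, spray the same formulation postemergence on 1- to 4-leaf plants (2–18 cm); hold 14–21 days in a greenhouse; rate visually vs controls, 0 = no effect, 100 = complete control.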

[3] = system: bermudagrass (Cynodon dactylon); experiment: Test E pre-/postemergence plant response; conditions: scale 0 to 100
Outline: as §2

[4] = system: common groundsel (Senecio vulgaris); experiment: Test E pre-/postemergence plant response; conditions: scale 0 to 100
Outline: as §2

[5] = system: dallisgrass (Paspalum dilatatum); experiment: Test E pre-/postemergence plant response; conditions: scale 0 to 100
Outline: as §2

[6] = system: goosegrass (Eleusine indica); experiment: Test E pre-/postemergence plant response; conditions: scale 0 to 100
Outline: as §2

[7] = system: itchgrass (Rottboellia cochinchinensis); experiment: Test E pre-/postemergence plant response; conditions: scale 0 to 100
Outline: as §2

[8] = system: johnsongrass (Sorghum halepense); experiment: Test E pre-/postemergence plant response; conditions: scale 0 to 100
Outline: as §2

[9] = Postemergence, 8 g ai/ha, scale 0 to 100, 0 no effect, 100 complete control
[10] = Postemergence, 16 g ai/ha, scale 0 to 100, 0 no effect, 100 complete control
[11] = Postemergence, 31 g ai/ha, scale 0 to 100, 0 no effect, 100 complete control
[12] = Postemergence, 62 g ai/ha, scale 0 to 100, 0 no effect, 100 complete control
[13] = Preemergence, 8 g ai/ha, scale 0 to 100 (0 no effect, 100 complete control)
[14] = Preemergence, 31 g ai/ha, scale 0 to 100 (0 no effect, 100 complete control)
[15] = Preemergence, 62 g ai/ha, scale 0 to 100, 0 no effect, 100 complete control
[16] = Preemergence, 16 g ai/ha, scale 0 to 100 (0 no effect, 100 complete control)

CCCc1cc(-c2ccc(Cl)cc2)nn1-c1c(O)cnn(C)c1=O [Compound 43]
75: Plant response rating, Goosegrass ([6]; Postemergence, 16 g ai/ha) | Plant response rating, Goosegrass ([6]; Postemergence, 31 g ai/ha) | Plant response rating, Itchgrass ([7]; Postemergence, 62 g ai/ha)
65: Plant response rating, Barley, Winter [1, 15] | Plant response rating, Goosegrass ([6]; 16 g ai/ha, Preemergence) | Plant response rating, Johnsongrass ([8]; Postemergence, 31 g ai/ha)
5: Plant response rating, Barley, Winter [1, 9]
0: Plant response rating, Canola (canola (Brassica rapa); [9]) | Plant response rating, Canola (canola (Brassica rapa); [10]) | Plant response rating, Canola (canola (Brassica rapa); [11]) | Plant response rating, Canola (canola (Brassica rapa); [12]) | Plant response rating, Canola (canola (Brassica rapa); [13]) | Plant response rating, Canola (canola (Brassica rapa); [14]) | Plant response rating, Canola (canola (Brassica rapa); [15]) | Plant response rating, Barley, Winter [1, 13] | Plant response rating, Bluegrass ([2]; 16 g ai/ha, Preemergence) | Plant response rating, Bluegrass ([2]; 31 g ai/ha, Preemergence) | Plant response rating, Bluegrass ([2]; 62 g ai/ha, Preemergence) | Plant response rating, Bluegrass ([2]; Postemergence, 8 g ai/ha) | Plant response rating, Bluegrass ([2]; Postemergence, 16 g ai/ha) | Plant response rating, Bluegrass ([2]; Postemergence, 31 g ai/ha) | Plant response rating, Bluegrass ([2]; Postemergence, 62 g ai/ha) | Plant response rating, Bermudagrass ([3]; Postemergence, 8 g ai/ha) | Plant response rating, Groundsel ([4]; 16 g ai/ha, Preemergence) | Plant response rating, Groundsel ([4]; 31 g ai/ha, Preemergence) | Plant response rating, Groundsel ([4]; 62 g ai/ha, Preemergence) | Plant response rating, Groundsel ([4]; Postemergence, 8 g ai/ha) | Plant response rating, Groundsel ([4]; Postemergence, 16 g ai/ha) | Plant response rating, Groundsel ([4]; Postemergence, 31 g ai/ha) | Plant response rating, Groundsel ([4]; Postemergence, 62 g ai/ha) | Plant response rating, Dallisgrass ([5]; Postemergence, 8 g ai/ha) | Plant response rating, Johnsongrass ([8]; 16 g ai/ha, Preemergence)
90: Plant response rating, Dallisgrass ([5]; 62 g ai/ha, Preemergence) | Plant response rating, Goosegrass ([6]; Postemergence, 62 g ai/ha)
70: Plant response rating, Bermudagrass ([3]; 31 g ai/ha, Preemergence)
35: Plant response rating, Itchgrass ([7]; 16 g ai/ha, Preemergence)
80: Plant response rating, Barley, Winter [1, 12] | Plant response rating, Dallisgrass ([5]; 31 g ai/ha, Preemergence)
60: Plant response rating, Johnsongrass ([8]; 62 g ai/ha, Preemergence)
50: Plant response rating, Barley, Winter [1, 14] | Plant response rating, Dallisgrass ([5]; Postemergence, 62 g ai/ha) | Plant response rating, Itchgrass ([7]; 31 g ai/ha, Preemergence) | Plant response rating, Johnsongrass ([8]; 31 g ai/ha, Preemergence)
30: Plant response rating, Bermudagrass ([3]; 16 g ai/ha, Preemergence)
85: Plant response rating, Bermudagrass ([3]; 62 g ai/ha, Preemergence) | Plant response rating, Itchgrass ([7]; 62 g ai/ha, Preemergence)
98: Plant response rating, Goosegrass ([6]; 62 g ai/ha, Preemergence)
40: Plant response rating, Barley, Winter [1, 11] | Plant response rating, Dallisgrass ([5]; 16 g ai/ha, Preemergence)
15: Plant response rating, Barley, Winter [1, 10] | Plant response rating, Johnsongrass ([8]; Postemergence, 8 g ai/ha)
25: Plant response rating, Johnsongrass ([8]; Postemergence, 16 g ai/ha)
95: Plant response rating, Goosegrass ([6]; 31 g ai/ha, Preemergence)
20: Plant response rating, Barley, Winter [1, 16] | Plant response rating, Bermudagrass ([3]; Postemergence, 16 g ai/ha) | Plant response rating, Bermudagrass ([3]; Postemergence, 31 g ai/ha) | Plant response rating, Bermudagrass ([3]; Postemergence, 62 g ai/ha) | Plant response rating, Dallisgrass ([5]; Postemergence, 31 g ai/ha) | Plant response rating, Goosegrass ([6]; Postemergence, 8 g ai/ha) | Plant response rating, Itchgrass ([7]; Postemergence, 8 g ai/ha) | Plant response rating, Itchgrass ([7]; Postemergence, 31 g ai/ha)

CCOC(=O)Oc1cnn(C)c(=O)c1-n1nc(-c2ccc(Cl)cc2)cc1C [Compound 53]
70: Plant response rating, Bermudagrass ([3]; Postemergence, 16 g ai/ha) | Plant response rating, Itchgrass ([7]; Postemergence, 8 g ai/ha) | Plant response rating, Johnsongrass ([8]; 16 g ai/ha, Preemergence)
20: Plant response rating, Dallisgrass ([5]; Postemergence, 16 g ai/ha) | Plant response rating, Goosegrass ([6]; Postemergence, 8 g ai/ha)
80: Plant response rating, Bermudagrass ([3]; 16 g ai/ha, Preemergence) | Plant response rating, Bermudagrass ([3]; Postemergence, 31 g ai/ha) | Plant response rating, Dallisgrass ([5]; 31 g ai/ha, Preemergence) | Plant response rating, Goosegrass ([6]; 16 g ai/ha, Preemergence) | Plant response rating, Goosegrass ([6]; Postemergence, 31 g ai/ha)
10: Plant response rating, Barley, Winter [1, 10]
30: Plant response rating, Dallisgrass ([5]; Postemergence, 31 g ai/ha)
60: Plant response rating, Bluegrass ([2]; 62 g ai/ha, Preemergence)
95: Plant response rating, Barley, Winter [1, 12] | Plant response rating, Dallisgrass ([5]; 62 g ai/ha, Preemergence) | Plant response rating, Goosegrass ([6]; Postemergence, 62 g ai/ha) | Plant response rating, Itchgrass ([7]; Postemergence, 31 g ai/ha) | Plant response rating, Johnsongrass ([8]; 62 g ai/ha, Preemergence)
90: Plant response rating, Itchgrass ([7]; 62 g ai/ha, Preemergence) | Plant response rating, Itchgrass ([7]; Postemergence, 16 g ai/ha) | Plant response rating, Johnsongrass ([8]; 31 g ai/ha, Preemergence)
98: Plant response rating, Bermudagrass ([3]; 31 g ai/ha, Preemergence) | Plant response rating, Bermudagrass ([3]; 62 g ai/ha, Preemergence) | Plant response rating, Bermudagrass ([3]; Postemergence, 62 g ai/ha) | Plant response rating, Itchgrass ([7]; Postemergence, 62 g ai/ha)
85: Plant response rating, Itchgrass ([7]; 31 g ai/ha, Preemergence)
40: Plant response rating, Barley, Winter [1, 11]
65: Plant response rating, Dallisgrass ([5]; 16 g ai/ha, Preemergence) | Plant response rating, Goosegrass ([6]; Postemergence, 16 g ai/ha)
75: Plant response rating, Dallisgrass ([5]; Postemergence, 62 g ai/ha) | Plant response rating, Itchgrass ([7]; 16 g ai/ha, Preemergence)
100: Plant response rating, Goosegrass ([6]; 31 g ai/ha, Preemergence) | Plant response rating, Goosegrass ([6]; 62 g ai/ha, Preemergence) | Plant response rating, Johnsongrass ([8]; Postemergence, 16 g ai/ha) | Plant response rating, Johnsongrass ([8]; Postemergence, 31 g ai/ha) | Plant response rating, Johnsongrass ([8]; Postemergence, 62 g ai/ha)
15: Plant response rating, Barley, Winter [1, 16]
0: Plant response rating, Canola (canola (Brassica rapa); [9]) | Plant response rating, Canola (canola (Brassica rapa); [10]) | Plant response rating, Canola (canola (Brassica rapa); [11]) | Plant response rating, Canola (canola (Brassica rapa); [12]) | Plant response rating, Canola (canola (Brassica rapa); [15]) | Plant response rating, Barley, Winter [1, 9] | Plant response rating, Barley, Winter [1, 13] | Plant response rating, Bluegrass ([2]; 16 g ai/ha, Preemergence) | Plant response rating, Bluegrass ([2]; 31 g ai/ha, Preemergence) | Plant response rating, Bluegrass ([2]; Postemergence, 8 g ai/ha) | Plant response rating, Bluegrass ([2]; Postemergence, 16 g ai/ha) | Plant response rating, Bluegrass ([2]; Postemergence, 31 g ai/ha) | Plant response rating, Bluegrass ([2]; Postemergence, 62 g ai/ha) | Plant response rating, Groundsel ([4]; 16 g ai/ha, Preemergence) | Plant response rating, Groundsel ([4]; 31 g ai/ha, Preemergence) | Plant response rating, Groundsel ([4]; 62 g ai/ha, Preemergence) | Plant response rating, Groundsel ([4]; Postemergence, 8 g ai/ha) | Plant response rating, Groundsel ([4]; Postemergence, 16 g ai/ha) | Plant response rating, Groundsel ([4]; Postemergence, 31 g ai/ha) | Plant response rating, Groundsel ([4]; Postemergence, 62 g ai/ha) | Plant response rating, Dallisgrass ([5]; Postemergence, 8 g ai/ha)
50: Plant response rating, Barley, Winter [1, 14] | Plant response rating, Barley, Winter [1, 15] | Plant response rating, Bermudagrass ([3]; Postemergence, 8 g ai/ha) | Plant response rating, Johnsongrass ([8]; Postemergence, 8 g ai/ha)
